Paper PMC3914206

How the values were obtained:
panel of 442 kinases [1] = target: T1, panel of 442 kinases (Homo sapiens, UniProt Q13873); assay type: binding; conditions: Compound Concentration 10 µM
T1 construct: purchased KINOMEscan
T1 sequence (Q13873 27-1038): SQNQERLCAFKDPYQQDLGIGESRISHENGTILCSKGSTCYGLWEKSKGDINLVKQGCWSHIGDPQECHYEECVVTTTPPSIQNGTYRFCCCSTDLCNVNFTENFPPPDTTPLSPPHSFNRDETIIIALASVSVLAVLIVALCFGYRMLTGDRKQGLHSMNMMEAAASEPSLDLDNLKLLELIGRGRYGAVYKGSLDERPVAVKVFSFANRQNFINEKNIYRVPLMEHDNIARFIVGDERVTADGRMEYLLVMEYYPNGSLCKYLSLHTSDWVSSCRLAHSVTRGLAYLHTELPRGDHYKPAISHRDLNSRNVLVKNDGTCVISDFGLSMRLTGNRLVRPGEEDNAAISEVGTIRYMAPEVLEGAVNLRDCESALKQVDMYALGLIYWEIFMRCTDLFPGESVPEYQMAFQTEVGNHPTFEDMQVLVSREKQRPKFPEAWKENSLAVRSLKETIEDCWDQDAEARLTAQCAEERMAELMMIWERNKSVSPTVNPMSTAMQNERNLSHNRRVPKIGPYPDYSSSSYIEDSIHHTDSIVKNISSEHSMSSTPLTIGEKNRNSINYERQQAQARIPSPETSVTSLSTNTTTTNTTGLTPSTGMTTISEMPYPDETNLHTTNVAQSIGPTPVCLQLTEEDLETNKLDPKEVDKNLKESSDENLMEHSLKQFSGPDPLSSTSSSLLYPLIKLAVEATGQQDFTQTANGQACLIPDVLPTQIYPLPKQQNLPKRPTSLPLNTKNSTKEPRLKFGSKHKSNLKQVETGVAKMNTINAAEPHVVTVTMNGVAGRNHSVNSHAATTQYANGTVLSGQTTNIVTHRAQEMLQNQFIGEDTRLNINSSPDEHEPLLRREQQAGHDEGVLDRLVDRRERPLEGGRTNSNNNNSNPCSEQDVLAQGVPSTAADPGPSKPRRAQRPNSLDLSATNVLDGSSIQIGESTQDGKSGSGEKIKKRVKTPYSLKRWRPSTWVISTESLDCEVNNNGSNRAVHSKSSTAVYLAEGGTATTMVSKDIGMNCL
Source text: (§1) We assessed the selectivity of members of this scaffold using the KINOMEscan methodology across a near comprehensive panel of 442 kinases [[18,27]].

panel of 442 kinases [2] = target: T2, panel of 442 kinases (Homo sapiens, UniProt Q9Y616); assay type: binding; conditions: Compound Concentration 10 µM
T2 construct: purchased KINOMEscan
T2 sequence (Q9Y616 1-596): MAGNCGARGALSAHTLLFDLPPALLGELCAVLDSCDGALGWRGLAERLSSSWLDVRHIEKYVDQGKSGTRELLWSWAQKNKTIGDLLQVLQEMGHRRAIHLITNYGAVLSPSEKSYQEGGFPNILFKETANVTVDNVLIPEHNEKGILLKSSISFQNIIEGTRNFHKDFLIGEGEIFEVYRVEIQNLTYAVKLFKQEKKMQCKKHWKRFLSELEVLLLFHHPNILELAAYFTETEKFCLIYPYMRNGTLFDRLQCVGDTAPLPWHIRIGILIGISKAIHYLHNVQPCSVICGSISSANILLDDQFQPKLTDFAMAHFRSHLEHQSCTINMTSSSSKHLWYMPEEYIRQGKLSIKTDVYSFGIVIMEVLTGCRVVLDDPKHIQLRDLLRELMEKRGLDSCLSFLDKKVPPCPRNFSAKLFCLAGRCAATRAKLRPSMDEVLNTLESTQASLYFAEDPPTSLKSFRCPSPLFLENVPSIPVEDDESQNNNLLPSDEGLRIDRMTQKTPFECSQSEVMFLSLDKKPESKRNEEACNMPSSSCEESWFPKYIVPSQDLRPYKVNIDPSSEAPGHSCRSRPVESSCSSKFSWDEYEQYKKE
Source text: as §1

Row | Compound | KINOMEscan: BMPR2 (panel of 442 kinases [1]) | KINOMEscan: IRAK3 (panel of 442 kinases [2])
1 | COc1cc(C(=O)N2CCC(N3CCN(C)CC3)CC2)ccc1Nc1ncc2c(n1)N(C1CCCC1)c1ccccc1C(=O)N2C [Compound 25, 11-cyclopentyl-2-((2-methoxy-4-(4-(4-methylpiperazin-1-yl)piperidine-1-carbonyl)phenyl)amino)-5-methyl-5H-benzo[e]pyrimido[5,4-b][1,4]diazepin-6(11H)-one] | 100 | 100
2 | COc1cc(C(=O)N2CCC(N3CCN(C)CC3)CC2)ccc1Nc1ncc2c(n1)N(C)c1ccccc1C(=O)N2C [15 (LRRK2-IN-1)] | 100 | 100
3 | CCOc1cc(C(=O)N2CCC(N3CCN(C)CC3)CC2)ccc1Nc1ncc2c(n1)N(C1CCCC1)c1ccccc1C(=O)N2C [Compound 26] | 93 | 100
